In ChEMBL document CHEMBL3407417 (J Med Chem, 2015):
≈ marks a conversion by molar mass, not a printed value.

Columns and labels:
A549 = assay: cells; details: Homo sapiens, A549, 72 h
[1] = Thermodynamic solubility of the compound in buffer containing 20 mmol/L of sodium taurocholate at pH 6.8; format: physicochemical; details: buffer containing 20 mmol/L sodium taurocholate, read-out: Therm_solubility
[2] = Stability in rat liver microsomes assessed as compound remaining after 30 mins; format: ADME; details: read-out: Stability
[3] = Plasma clearance in Sprague-Dawley rat at 0.5 mg/kg, iv; format: ADME, organism-based; parameters: dose 0.5 mg/kg, route intravenous
[4] = Volume of distribution at steady state in Sprague-Dawley rat at 0.5 mg/kg, iv; format: ADME, organism-based; parameters: dose 0.5 mg/kg, route intravenous; details: in vivo, read-out: Vdss
[5] = Oral bioavailability in Sprague-Dawley rat at 1 mg/kg; format: ADME, organism-based; details: in vivo
NCI-H358 = assay: Antiproliferative activity against human NCI-H358 cells after 72 hrs by WST8 assay; format: functional, cell-based; details: NCI-H358, 72 h
MRC5 = assay: Antiproliferative activity against human MRC5 cells after 72 hrs by WST8 assay; format: cell-based; details: MRC5, 72 h
cells [6] = details: Homo sapiens, LU-99A, 72 h
Description: Antiproliferative activity against human LU99A cells after 72 hrs by WST8 assay

cells [7] = details: Homo sapiens, Lu116, 72 h
Description: Antiproliferative activity against human Lu116 cells after 72 hrs by WST8 assay

cells [8] = details: Homo sapiens, LC-2-ad, 72 h
Description: Antiproliferative activity against human LC2/ad cells after 72 hrs by WST8 assay

cells [9] = details: Homo sapiens, PC-14, 72 h
Description: Antiproliferative activity against human PC14 cells after 72 hrs by WST8 assay

cells [10] = details: Homo sapiens, HCT-15, 72 h
Description: Antiproliferative activity against human HCT15 cells after 72 hrs by WST8 assay

cells [11] = details: Homo sapiens, HCT-116, 72 h
Description: Antiproliferative activity against human HCT116 cells after 72 hrs by WST8 assay

HT-29 = assay: cells; details: Homo sapiens, HT-29, 72 h
Description: Antiproliferative activity against human HT-29 cells after 72 hrs by WST8 assay

cells [12] = details: Homo sapiens, MIA PaCa-2, 72 h
Description: Antiproliferative activity against human MIAPaCa2 cells after 72 hrs by WST8 assay

cells [13] = details: Homo sapiens, GSS, 72 h
Description: Antiproliferative activity against human GSS cells after 72 hrs by WST8 assay

cells [14] = details: Homo sapiens, MKN-45, 72 h
Description: Antiproliferative activity against human MKN45 cells after 72 hrs by WST8 assay

cells [15] = details: Homo sapiens, HL-60, 72 h
Description: Antiproliferative activity against human HL60 cells after 72 hrs by WST8 assay

[16] = AUC in Sprague-Dawley rat at 1 mg/kg, po; format: ADME, organism-based; parameters: dose 1 mg/kg, route oral; details: plasma
[17] = Cmax in Sprague-Dawley rat at 1 mg/kg, po; format: ADME, organism-based; parameters: dose 1 mg/kg, route oral; details: in vivo
[18] = Cmax in BALB/c AJcl-nu/nu mouse at 10 mg/kg, po; format: ADME, organism-based; parameters: dose 10 mg/kg, route oral; details: in vivo
[19] = Cmax in BALB/c AJcl-nu/nu mouse at 100 mg/kg, po; format: ADME, organism-based; parameters: dose 100 mg/kg, route oral; details: in vivo
[20] = AUC in BALB/c AJcl-nu/nu mouse at 10 mg/kg, po; format: ADME, organism-based; parameters: dose 10 mg/kg, route oral; details: plasma
[21] = AUC in BALB/c AJcl-nu/nu mouse at 100 mg/kg, po; format: ADME, organism-based; parameters: dose 100 mg/kg, route oral; details: plasma
[22] = Tmax in BALB/c AJcl-nu/nu mouse at 10 mg/kg, po; format: ADME, organism-based; parameters: dose 10 mg/kg, route oral; details: in vivo
[23] = Tmax in BALB/c AJcl-nu/nu mouse at 100 mg/kg, po; format: ADME, organism-based; parameters: dose 100 mg/kg, route oral; details: in vivo
Plasma = assay: Fraction unbound in rat plasma; format: ADME, cell-free
NCI-H460 [24] = assay: Antitumor activity against human NCI-H460 cells xenografted in nude mouse assessed as tumor growth inhibition at 2.5 mg/kg, po qd for 2 weeks relative to control; format: functional
NCI-H460 [25] = assay: Antitumor activity against human NCI-H460 cells xenografted in nude mouse assessed as tumor growth inhibition at 5 mg/kg, po qd for 2 weeks relative to control; format: functional
NCI-H460 [26] = assay: Antitumor activity against human NCI-H460 cells xenografted in nude mouse assessed as tumor growth inhibition at 10 mg/kg, po qd for 2 weeks relative to control; format: functional
Mus musculus [27] = assay: Toxicity in human NCI-H460 cells xenografted nude mouse assessed as body weight loss at 5 mg/kg, po qd for 2 weeks relative to control; format: organism-based; parameters: dose 5 mg/kg, route oral; details: in vivo, 336 h
Mus musculus [28] = assay: Toxicity in human NCI-H460 cells xenografted nude mouse assessed as body weight loss at 10 mg/kg, po qd for 2 weeks relative to control; format: organism-based; parameters: dose 10 mg/kg, route oral; details: in vivo, 336 h
Mus musculus [29] = assay: Toxicity in human NCI-H460 cells xenografted nude mouse assessed as mortality at 5 to 10 mg/kg, po qd for 2 weeks relative to control; format: organism-based; parameters: dose 5-10 mg/kg, route oral; details: in vivo, 336 h
Mus musculus [30] = assay: Toxicity in human NCI-H460 cells xenografted nude mouse assessed as body weight loss at 2.5 mg/kg, po qd for 2 weeks relative to control; format: organism-based; parameters: dose 2.5 mg/kg, route oral; details: in vivo, 336 h
NCI-H460 [31] = assay: cells; details: Homo sapiens, NCI-H460, 72 h
Description: Antiproliferative activity against human NCI-H460 cells after 72 hrs by WST8 assay

| solubility thermodynamic [1] | remaining at 0.5 h [2] | clearance [3] | Vd [4] | bioavailability [5] | AUC [16] | Cmax [17] | SMILES | other results |
| --- | --- | --- | --- | --- | --- | --- | --- | --- |
| 0.49 µg/mL (≈ 0.995 µM) | 42% | 38 mL/min/kg | 4.2 L/kg | 0% | – | – | N#Cc1ccc(-c2cc(NCC3CCOCC3)c3ncc(-c4ccc(C(=O)NC5CC5)cc4)n3n2)cc1 | – |
| 2.6 µg/mL (≈ 5.12 µM) | 59% | 23 mL/min/kg | 2 L/kg | 0% | – | – | N#Cc1ccc(-c2cc(NCC3CCOCC3)c3ncc(-c4ccc(C(=O)NC5CC5)cc4)n3n2)c(N)c1 | – |
| 1.3 µg/mL (≈ 2.6 µM) | 21% | 78 mL/min/kg | 2.2 L/kg | 0% | – | – | O=C(NC1CC1)c1ccc(-c2cnc3c(NCC4CCOCC4)cc(Oc4ccccc4O)nn23)cc1 | – |
| 8 µg/mL (≈ 16 µM) | 39% | 22 mL/min/kg | 2 L/kg | 16% | 126 ng·h/mL | 16 ng/mL | O=C(NC1CC1)c1ccc(-c2cnc3c(NCC4CCOCC4)cc(Oc4ccccc4F)nn23)cc1 | – |

Further lines, the compound ahead of its results:

| SMILES | solubility thermodynamic [1] | remaining at 0.5 h [2] | clearance [3] | Vd [4] | bioavailability [5] | AUC [16] | Cmax [17] | other results |
| --- | --- | --- | --- | --- | --- | --- | --- | --- |
| O=C(NC1CC1)c1ccc(-c2cnc3c(NCC4CCOCC4)nccn23)cc1 | – | – | – | – | – | – | – | IC50 (A549): 1500 nM |
| N#Cc1ccc(-c2cn3c(-c4ccc(C(=O)NC5CC5)cc4)cnc3c(NCC3CCOCC3)n2)cc1 | 1 µg/mL (≈ 2.03 µM) | 0% | 145 mL/min/kg | 5 L/kg | 0% | – | – | – |
| COc1cc(Nc2ncc3c(n2)-c2ccc(Cl)cc2C(c2c(F)cccc2OC)=NC3)ccc1C(=O)O [ALISERTIB] | – | – | – | – | – | – | – | IC50 (NCI-H358): 100 nM; IC50 (MRC5): > 10000 nM; IC50 (cells [6]): 62 nM; IC50 (cells [7]): 97 nM; IC50 (cells [8]): 77 nM; IC50 (cells [9]): 170 nM; IC50 (cells [10]): 740 nM; IC50 (cells [11]): 95 nM; IC50 (HT-29): 330 nM; IC50 (cells [12]): 130 nM; IC50 (cells [13]): 39 nM; IC50 (cells [14]): 93 nM; IC50 (cells [15]): 74 nM |
| CC(C)(Nc1cc(NCC2CCOCC2)c2ncc(-c3ccc(C(=O)NC4CC4)cc3)n2n1)C(F)(F)F | 29 µg/mL (≈ 56.1 µM) | 41% | 11 mL/min/kg | 1.3 L/kg | 24% | 360 ng·h/mL | 38 ng/mL | Cmax [18]: 2430 ng/mL; Cmax [19]: 14000 ng/mL; AUC [20]: 8000 ng·h/mL; AUC [21]: 48500 ng·h/mL; Tmax [22]: 30 min; Tmax [23]: 60 min; Fu (Plasma): 0.51%; T/C (NCI-H460 [24]): 57%; T/C (NCI-H460 [25]): 40%; T/C (NCI-H460 [26]): 19%; Activity (Mus musculus [27]): 25%; Activity (Mus musculus [28]): 32%; Activity (Mus musculus [29]): Toxic; Activity (Mus musculus [30]): Non-toxic |
| CC(=O)O[C@H]1C(=O)[C@@]2(C)[C@H]([C@H](OC(=O)c3ccccc3)[C@]3(O)C[C@H](OC(=O)[C@H](O)[C@@H](NC(=O)c4ccccc4)c4ccccc4)C(C)=C1C3(C)C)[C@]1(OC(C)=O)CO[C@@H]1C[C@@H]2O [PACLITAXEL] | – | – | – | – | – | – | – | IC50 (NCI-H358): 7.9 nM; IC50 (MRC5): 80 nM; IC50 (NCI-H460 [31]): 10 nM; IC50 (cells [6]): 5.2 nM; IC50 (cells [7]): 5.1 nM; IC50 (cells [8]): 2.5 nM; IC50 (cells [9]): 4.4 nM; IC50 (cells [10]): 240 nM; IC50 (cells [11]): 6.1 nM; IC50 (HT-29): 7 nM; IC50 (cells [12]): 6.1 nM; IC50 (cells [13]): 3.4 nM; IC50 (cells [14]): 4 nM; IC50 (cells [15]): 7.9 nM |
| CC(C)(C)Nc1cc(NCC2CCOCC2)c2ncc(-c3ccc(C(=O)NC4CC4)cc3)n2n1 | 63 µg/mL (≈ 136 µM) | 59% | 16 mL/min/kg | 1.7 L/kg | 36% | 377 ng·h/mL | 50 ng/mL | – |
| O=C(NC1CC1)c1ccc(-c2cnc3c(NCC4CCOCC4)cc(OC4CCCCC4)nn23)cc1 | 10 µg/mL (≈ 20.4 µM) | 55% | 8.7 mL/min/kg | 1.6 L/kg | 23% | 439 ng·h/mL | 33 ng/mL | – |
